In the supplement of paper PMC10331698:
± gives the standard deviation of the averaged measurements.

Legend:
Assay in all cases: level (log10 ratio to DMSO vehicle control); higher = higher biomarker level / cell amount than vehicle control
Details in all cases: in DMSO
Perfluoropentanoic acid = compound: O=C(O)C(F)(F)C(F)(F)C(F)(F)C(F)(F)F [Perfluoropentanoic acid]
Description: (§1)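 BioMAP Diversity Plus panel of 12 human primary cell co-culture systems (3C, 4H, LPS, SAg, BT, BF4T, BE3C, CASM3C, HDF3CGF, KF3CT, MyoF, Mphg). Compounds were added 1 h before stimulation and left for 24 h (MyoF 48 h; BT 72 h for soluble read-outs or 6 d for IgG). Biomarkers were read by ELISA, cytotoxicity by SRB, PBMC viability and proliferation by Alamar Blue. Each well value was divided by the mean of 8 DMSO control wells on the same plate and log10 transformed; duplicate blinded samples were tested at 4 concentrations.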

[1] = compound: O=C(O)C(F)(F)C(F)(F)C(F)(F)C(F)(F)C(F)(F)C(F)(F)C(F)(F)C(F)F [9-H-Perfluorononanoic acid]
Description: as §1

[2] = compound: C=CC(F)(F)C(F)(F)C(F)(F)C(F)(F)C(F)(F)C(F)(F)C(F)(F)C(F)(F)C=C [1,8-Divinylperfluorooctane]
Description: as §1

Perfluoro-1-iodohexane = compound: FC(F)(F)C(F)(F)C(F)(F)C(F)(F)C(F)(F)C(F)(F)I [Perfluoro-1-iodohexane]
Description: as §1

[3] = compound: O=S(=O)(O)C(F)(F)C(F)(F)C(F)(F)C(F)(F)C(F)(F)C(F)(F)F [Perfluorohexanesulfonic acid]
Description: as §1

[4] = compound: C=CC(=O)OCC(F)(F)C(F)(F)C(F)(F)C(F)(F)C(F)(F)C(F)(F)C(F)(F)F [1H,1H-Perfluorooctyl acrylate]
Description: as §1

Pentafluoropropionamide = compound: NC(=O)C(F)(F)C(F)(F)F [Pentafluoropropionamide]
Description: as §1

Row | Test System | level (log10) (Perfluoropentanoic acid; 6700 nM) | level (log10) (Perfluoropentanoic acid; 20000 nM) | level (log10) (Perfluoropentanoic acid; 60000 nM) | level (log10) ([1]; 6700 nM) | level (log10) ([1]; 20000 nM) | level (log10) ([1]; 60000 nM) | level (log10) ([2]; 6700 nM) | level (log10) ([2]; 20000 nM) | level (log10) (Perfluoro-1-iodohexane; 6700 nM) | level (log10) (Perfluoro-1-iodohexane; 20000 nM) | level (log10) (Perfluoro-1-iodohexane; 60000 nM) | level (log10) ([3]; 6700 nM) | level (log10) ([3]; 20000 nM) | level (log10) ([3]; 60000 nM) | level (log10) ([4]; 6700 nM) | level (log10) ([4]; 20000 nM) | level (log10) ([4]; 60000 nM) | level (log10) (Pentafluoropropionamide; 6700 nM) | level (log10) (Pentafluoropropionamide; 20000 nM) | level (log10) (Pentafluoropropionamide; 60000 nM)
1 | BF4T:CCL2/MCP-1 | 0.004 ± 0.047 | -0.0035 ± 0.052 | -0.0275 ± 0.025 | -0.164 ± 0.011 | -0.19 ± 0.0057 | -0.122 ± 0.036 | -0.007 ± 0.0028 | 0.014 ± 0.047 | -0.002 ± 0.025 | -0.024 ± 0.025 | -0.0315 ± 0.028 | 0.028 ± 0.045 | -0.0075 ± 0.013 | -0.042 ± 0.037 | -0.0145 ± 0.0021 | -0.0405 ± 0.0078 | -0.027 ± 0.0014 | -0.0075 ± 0.0035 | -0.0195 ± 0.00071 | 0.001 ± 0.025
2 | BT:Secreted IgG | -0.0065 ± 0.016 | 0.0145 ± 0.0035 | -0.009 ± 0.059 | 0.038 ± 0.0071 | -0.011 ± 0.031 | 0.0485 ± 0.019 | 0.022 ± 0.0071 | 0.0255 ± 0.019 | 0.0195 ± 0.023 | -0.0165 ± 0.043 | -0.0315 ± 0.081 | -0.0295 ± 0.0064 | 0.0015 ± 0.0064 | 0.0085 ± 0.0035 | -0.0085 ± 0.015 | -0.0455 ± 0.057 | -0.132 ± 0.016 | 0.0065 ± 0.039 | -0.0075 ± 0.046 | 0.0155 ± 0.0064
3 | SAg:Proliferation | -0.0195 ± 0.04 | 0.0205 ± 0.046 | 0.0175 ± 0.08 | 0.052 ± 0.065 | 0.0735 ± 0.037 | 0.048 ± 0.095 | 0.0155 ± 0.0064 | 0.0455 ± 0.013 | -0.031 ± 0.044 | -0.055 ± 0.02 | -0.0395 ± 0.04 | -0.0215 ± 0.016 | 0.0015 ± 0.0064 | 0.021 ± 0.024 | 0.004 ± 0.0042 | -0.045 ± 0.047 | -0.128 ± 0.038 | 0.0045 ± 0.016 | 0.0135 ± 0.022 | 0.045 ± 0.0028
4 | BT:PBMC Cytotoxicity | 0.0075 ± 0.035 | -0.0055 ± 0.0078 | 0.0255 ± 0.013 | -0.009 ± 0.055 | 0.0435 ± 0.025 | 0.103 | 0.0285 ± 0.0035 | 0.019 ± 0.0042 | 0.042 ± 0.014 | -0.0045 ± 0.022 | 0.0285 ± 0.0035 | 0.0015 ± 0.016 | 0.0325 ± 0.0035 | 0.061 ± 0.0057 | -0.032 ± 0.071 | -0.0405 ± 0.056 | -0.092 ± 0.068 | 0.0065 ± 0.042 | 0.013 ± 0.034 | -0.02 ± 0.0014
5 | BF4T:CCL26/Eotaxin-3 | -0.0155 ± 0.029 | -0.0165 ± 0.0092 | 0.018 ± 0.05 | -0.174 ± 0.028 | -0.198 ± 0.049 | -0.147 ± 0.0071 | -0.0405 ± 0.019 | -0.0355 ± 0.013 | 0.0255 ± 0.0035 | 0.0135 ± 0.015 | -0.0145 ± 0.059 | 0.003 ± 0.0099 | -0.001 ± 0.02 | -0.0165 ± 0.037 | -0.008 ± 0.016 | -0.019 ± 0.03 | -0.036 ± 0.031 | -0.009 ± 0.017 | -0.0155 ± 0.023 | -0.0135 ± 0.011
6 | 3C:SRB | -0.0115 ± 0.013 | 0.001 ± 0.014 | 0.007 ± 0.018 | -0.005 ± 0.028 | -0.0115 ± 0.016 | -0.052 ± 0.025 | 0.0135 ± 0.0021 | 0.027 ± 0.0042 | -0.0035 ± 0.00071 | -0.0155 ± 0.00071 | -0.0155 ± 0.0021 | -0.011 ± 0.0085 | -0.014 ± 0.0014 | -0.0425 ± 0.019 | -0.002 ± 0.0099 | 0.0145 ± 0.011 | 0.015 | 0.008 ± 0.031 | -0.001 ± 0.011 | -0.025 ± 0.011
7 | BE3C:CD54/ICAM-1 | -0.006 ± 0.0085 | -0.0095 ± 0.00071 | 0.0055 ± 0.039 | -0.0435 ± 0.012 | -0.043 ± 0.0042 | -0.071 ± 0.0057 | 0.0085 ± 0.015 | 0.0055 ± 0.013 | -0.006 ± 0.0014 | -0.0125 ± 0.015 | -0.005 ± 0.014 | 0 ± 0.027 | 0.0025 ± 0.016 | 0.008 ± 0.013 | 0.0055 ± 0.042 | -0.011 ± 0.014 | 0.003 ± 0.014 | -0.0045 ± 0.0021 | 0.002 ± 0.0028 | -0.0055 ± 0.00071
8 | 3C:HLA-DR | -0.0075 ± 0.0035 | 0.0015 ± 0.021 | 0.018 ± 0.037 | -0.005 ± 0.0028 | 0.0005 ± 0.0021 | 0.028 ± 0.02 | -0.0185 ± 0.028 | -0.007 ± 0.013 | 0.0025 ± 0.0035 | -0.011 ± 0.0057 | -0.001 ± 0.017 | -0.0015 ± 0.015 | -0.0105 ± 0.023 | 0.0125 ± 0.047 | 0.0085 ± 0.0092 | 0.0155 ± 0.0035 | 0.0205 ± 0.019 | -0.0255 ± 0.029 | -0.0165 ± 0.013 | -0.0125 ± 0.00071
9 | 3C:CXCL8/IL-8 | -0.0065 ± 0.0092 | -0.005 ± 0.027 | 0.03 ± 0.079 | -0.0115 ± 0.011 | 0.015 ± 0.0057 | 0.0765 ± 0.005 | -0.023 ± 0.018 | 0.011 ± 0.034 | -0.014 ± 0.064 | -0.01 ± 0.065 | 0.0365 ± 0.079 | -0.004 ± 0.014 | 0.031 | 0.069 ± 0.024 | 0.0075 ± 0.013 | -0.008 ± 0.0042 | 0.016 ± 0.03 | -0.026 ± 0.013 | -0.028 ± 0.0099 | 0.002 ± 0.044
10 | BF4T:CD106/VCAM-1 | -0.0425 ± 0.036 | -0.046 ± 0.016 | 0.018 ± 0.04 | -0.0885 ± 0.049 | -0.103 ± 0.058 | -0.0625 ± 0.021 | 0.0015 ± 0.016 | 0.0065 ± 0.018 | -0.0055 ± 0.0035 | -0.0215 ± 0.0035 | -0.0745 ± 0.019 | -0.022 ± 0.024 | -0.019 ± 0.0014 | -0.0155 ± 0.033 | -0.0105 ± 0.0021 | -0.04 ± 0.0014 | -0.049 ± 0.011 | -0.001 ± 0.018 | -0.0045 ± 0.0021 | -0.016 ± 0.0071
11 | BF4T:uPA | -0.0315 ± 0.029 | -0.031 ± 0.023 | -0.0175 ± 0.033 | -0.0085 ± 0.016 | -0.0195 ± 0.012 | 0.001 ± 0.013 | -0.0045 ± 0.0064 | -0.0095 ± 0.012 | -0.0075 ± 0.013 | -0.016 ± 0.024 | -0.0165 ± 0.0035 | -0.002 ± 0.027 | -0.007 ± 0.02 | -0.0035 ± 0.037 | -0.002 ± 0.0014 | 0.0035 ± 0.00071 | 0.001 ± 0.0042 | -0.013 ± 0.0085 | -0.0075 ± 0.0078 | 0.0045 ± 0.018
12 | 3C:Proliferation | -0.029 ± 0.028 | 0.011 | 0.0015 ± 0.046 | -0.013 ± 0.017 | 0.004 ± 0.037 | -0.023 ± 0.031 | 0 ± 0.016 | 0 ± 0.013 | -0.0215 ± 0.0064 | -0.0205 ± 0.013 | -0.041 ± 0.041 | -0.042 ± 0.034 | -0.0525 ± 0.054 | -0.0305 ± 0.022 | -0.015 ± 0.017 | -0.0805 ± 0.032 | -0.214 ± 0.033 | -0.0095 ± 0.05 | -0.0165 ± 0.0064 | -0.0115 ± 0.029
13 | BF4T:PAI-I | -0.003 ± 0.0014 | -0.005 ± 0.0028 | 0.007 ± 0.011 | -0.099 ± 0.0028 | -0.0915 ± 0.0021 | -0.114 ± 0.0099 | -0.01 ± 0.0057 | 0.0055 ± 0.0064 | -0.0095 ± 0.0035 | -0.02 ± 0.0042 | -0.006 ± 0.018 | 0.0005 ± 0.03 | -0.015 ± 0.017 | -0.018 ± 0.0028 | 0.008 ± 0.0014 | 0 ± 0.0014 | 0.0025 ± 0.013 | -0.0005 ± 0.0035 | -0.005 ± 0.016 | 0.0015 ± 0.011
14 | BT:B cell Proliferation | 0.009 ± 0.0057 | 0.0215 ± 0.06 | 0.0275 ± 0.012 | 0.0245 ± 0.0021 | 0.0495 ± 0.00071 | 0.108 ± 0.0028 | 0.0035 ± 0.037 | 0.035 ± 0.0085 | -0.011 ± 0.054 | -0.008 ± 0.011 | -0.0135 ± 0.025 | -0.0075 ± 0.047 | 0.0015 ± 0.053 | 0.063 ± 0.024 | -0.0405 ± 0.05 | -0.0195 ± 0.056 | -0.052 ± 0.048 | 0.005 ± 0.057 | -0.0215 ± 0.019 | 0.0205 ± 0.019
15 | BT:sIL-6 | -0.0355 ± 0.1 | 0.01 ± 0.051 | 0.022 ± 0.04 | -0.0315 ± 0.0064 | 0.06 ± 0.064 | -0.0215 ± 0.079 | 0.039 ± 0.016 | 0.0415 ± 0.071 | 0.0615 ± 0.0035 | 0.028 ± 0.057 | 0.039 ± 0.045 | 0.046 ± 0.052 | 0.0105 ± 0.036 | -0.056 ± 0.061 | -0.088 ± 0.0042 | -0.103 ± 0.031 | -0.242 ± 0.045 | 0.055 ± 0.027 | 0.017 ± 0.023 | -0.0095 ± 0.052
